In patent publication US20030055070A1, “Phosphodiesterase type 5 (PDE5) inhibitors for the treatment of selective serotonin reuptake inhibitor (SSR) induced sexual dysfunction” (priority 1999, published 2003):

Assays:
[1] = system: SSRI induced sexual dysfunction; settings: four patients (two men, two women); all reported; cited from earlier work
[2] = system: SSRI induced sexual dysfunction in men and women; settings: nine men, five women; twelve on SSRIs, two on mirtazapine; all patients; cited from earlier work
[3] = system: men with ED taking concomitant SSRIs; experiment: Retrospective subanalysis of 10 double-blind, placebo-controlled sildenafil citrate studies, IIEF questionnaire; patients taking concomitant SSRIs; format: in vivo, human
Experimental: (§1) A retrospective analysis of combined data from 10 Phase II/III double-blind, placebo-controlled, fixed- and flexible-dose trials identified a subgroup of men with ED who were receiving 5-200 mg of sildenafil citrate (S) or placebo (P) and taking concomitant SSRIs. Studies of sildenafil citrate in various populations have been reported. For example, Goldstein et al. report the results of two sildenafil citrate studies in men. In one study 532 men were treated with oral sildenafil citrate (25, 50 or 100 mg) or placebo over 24 weeks to study dose-response. In the second study 329 men were treated with sildenafil citrate or placebo with dose escalation to 100 mg based on efficacy and tolerance. Additional studies may be found in the following references: Derry et al. (1998), Dinsmore et al. (1999), Goldstein et al. (1998), Padma-Nathan et al. (1998) and Rendell et al. (1999). Analysis of efficacy (ANCOVA) included responses to several questions including question 9 (Q9; frequency of ejaculation) and question 10 (Q10; frequency of orgasm) of the International Index of Erectile Function. In the International Index of Erectile Function, sexual activity includes intercourse, caressing, foreplay and masturbation; sexual intercourse is defined as vaginal penetration of a partner by the respondent; sexual stimulation includes situations like foreplay with a partner, looking at erotic pictures, etc.; ejaculation: the ejection of semen from the penis (or the feeling of this). Question 9 is, “Over the past 4 weeks, when you had sexual stimulation or intercourse how often did you ejaculate?” Question 10 is, “Over the past 4 weeks, when you had sexual stimulation or intercourse how often did you have the feeling of orgasm (with or without ejaculation)? Scores are based on a scale from 1 (almost never or never) to 5 (almost always or always), with 0 representing “No sexual stimulation/intercourse.” Each question was scored from 0 to 5, with lower scores indicating greater sexual dysfunction. Results are expressed as mean baseline score's standard error of mean, (±SEM) and mean change from baseline (±SEM) at the end of treatment (6 to 24 weeks).
(§2) This was a retrospective subanalysis of combined data from 10 double-blind, placebo-controlled, fixed- and flexible-dose studies with sildenafil citrate for the treatment of ED. The subanalysis was conducted to assess whether treatment with sildenafil citrate can alleviate symptoms of sexual dysfunction in men taking SSRIs. The studies lasted for 6 to 24 weeks and dosing of the study drug ranged from 5 mg to 200 mg of sildenafil citrate or matching placebo. Patients were instructed to take medication approximately 1 hour before anticipated sexual activity but not more than once daily.
(§3) A total of 3414 patients were randomized to treatment. The main inclusion criteria were as follows: Men aged 18 years and older; Clinical diagnosis of ED of more than 6 months' duration; Stable relationship with a female partner for at least 6 months prior to the study; and written informed consent. The main exclusion criteria were as follows: Penile anatomical deformities; Major illness or uncontrolled psychiatric disorder; Concomitant treatment with nitrates or nitric oxide donors, estrogens, androgens, or anticoagulants. Other treatments for sexual dysfunction were not allowed during the study.
Efficacy was assessed at the end of treatment (6 to 24 weeks) by responses to the validated 15-item International Index of Erectile Function (IIEF) questionnaire. Rosen et al. (1997) “The International Index of Erectile Function (IIEF): a Multidimensional Scale for Assessment of Erectile Dysfunction,” Urology 49:822-830. Responses were graded on a scale of 1 (“almost never/never”) to 5 (“almost always/always”), with a score of 0 indicating no sexual activity. Efficacy results were evaluated using analysis of covariance (ANCOVA) and were expressed as mean scores. […]

[4] = system: SSRI-induced sexual side effects; settings: case studies of patients taking SSRIs; cited from earlier work
men with ED = experiment: Retrospective subanalysis of 10 double-blind, placebo-controlled sildenafil citrate studies, IIEF questionnaire; patients without SSRIs; format: in vivo, human
Experimental: as §1, §2, §3
Efficacy was assessed at the end of treatment (6 to 24 weeks) by responses to the validated 15-item International Index of Erectile Function (IIEF) questionnaire. Rosen et al. (1997) “The International Index of Erectile Function (IIEF): a Multidimensional Scale for Assessment of Erectile Dysfunction,” Urology 49:822-830. Responses were graded on a scale of 1 (“almost never/never”) to 5 (“almost always/always”), with a score of 0 indicating no sexual activity. Efficacy results were evaluated using analysis of covariance (ANCOVA) and were expressed as mean scores.

[5] = with SSRIs, 5-200 mg, end of treatment (6 to 24 weeks), scale 0-5
[6] = with SSRIs, baseline, scale 0-5
[7] = no SSRI, end of treatment (6 to 24 weeks), 5-200 mg, scale 0-5
[8] = no SSRI, p<0.0001 versus placebo
[9] = without SSRIs, 5-200 mg, end of treatment (6 to 24 weeks), scale 0-5
[10] = without SSRIs, baseline, scale 0-5

Compound: CCCc1nn(C)c2c(=O)[nH]c(-c3cc(S(=O)(=O)N4CCN(C)CC4)ccc3OCC)nc12.O=C(O)CC(O)(CC(=O)O)C(=O)O [Sildenafil citrate, 1-[[3-(6,7-dihydro-1-methyl-7-oxo-3-propyl-1H-pyrazolo[4,3-d]pyrimidin-5-yl)-4-ethoxyphenyl]sulfonyl]-4-methylpiperazine citrate]
- Effect on SSRI induced sexual dysfunction, in words [1]: rapid reversal of SSRI induced sexual dysfunction
- Sexual functioning, in words [2]: statistically significant improvement
- Frequency of orgasm (Question 10), effect versus placebo, in words ([3]; concomitant SSRI, p<0.01 versus placebo, citrate): significantly improved
- Frequency of ejaculation (Question 9), effect versus placebo, in words ([3]; concomitant SSRI, p<0.02 versus placebo, citrate): significantly improved
- Important aspects of sexual function, in words ([3]; patients with ED with concomitant SSRI): significantly improved
- IIEF Q9 frequency of ejaculation, mean change from baseline ± SEM [3, 5]: 1.16 ± 0.25
- IIEF Q10 frequency of orgasm, mean change from baseline ± SEM [3, 5]: 1.34 ± 0.27
- IIEF Q9 frequency of ejaculation, mean baseline score ± SEM [3, 6]: 2.42 ± 0.23
- IIEF Q10 frequency of orgasm, mean baseline score ± SEM [3, 6]: 2.24 ± 0.22
- Response to treatment, in words [4]: responding well
- Improvement of score, erection confidence (Question 15) (men with ED; no SSRI, baseline to endpoint): 76%
- Improvement of score, erection firmness (Question 2) (men with ED; no SSRI, baseline to endpoint): 78%
- Improvement of score, erection frequency (Question 1) (men with ED; no SSRI, baseline to endpoint): 60%
- Improvement of score, maintenance ability (Question 5) (men with ED; no SSRI, baseline to endpoint): 117%
- Increase of mean score, intercourse enjoyment (Question 8) (men with ED; no SSRI, baseline to endpoint): 70%
- Increase of mean score, intercourse frequency (Question 6) (men with ED; no SSRI, baseline to endpoint): 57%
- Increase of mean score, intercourse satisfaction (Question 7) (men with ED; no SSRI, baseline to endpoint): 93%
- Increase of mean score, overall satisfaction with sex life (Question 13) (men with ED; no SSRI, baseline to endpoint): 68%
- Increase of mean score, satisfaction with the relationship (Question 14) (men with ED; no SSRI, baseline to endpoint): 40%
- IIEF Question 1 erection frequency, baseline mean score (men with ED; no SSRI, baseline, scale 0-5): 2.27 ± 0.04
- IIEF Question 2 erection firmness, baseline mean score (men with ED; no SSRI, baseline, scale 0-5): 1.97 ± 0.03
- IIEF Question 5 maintenance ability, baseline mean score (men with ED; no SSRI, baseline, scale 0-5): 1.54 ± 0.03
- IIEF Question 6 intercourse frequency, baseline mean score (men with ED; no SSRI, baseline, scale 0-5): 2.00 ± 0.03
- IIEF Question 7 intercourse satisfaction, baseline mean score (men with ED; no SSRI, baseline, scale 0-5): 1.75 ± 0.03
- IIEF Question 8 intercourse enjoyment, baseline mean score (men with ED; no SSRI, baseline, scale 0-5): 1.86 ± 0.03
- IIEF Question 13 overall satisfaction, baseline mean score (men with ED; no SSRI, baseline, scale 0-5): 2.00 ± 0.02
- IIEF Question 14 relationship satisfaction, baseline mean score (men with ED; no SSRI, baseline, scale 0-5): 2.63 ± 0.03
- IIEF Question 15 erection confidence, baseline mean score (men with ED; no SSRI, baseline, scale 0-5): 1.76 ± 0.02
- Increase of mean score from mean baseline score, ability to achieve an erection (Question 3) (men with ED; no SSRI, end of treatment): 80%
- Increase of mean score from mean baseline score, ability to maintain an erection (Question 4) (men with ED; no SSRI, end of treatment): 107%
- IIEF Question 1 erection frequency, endpoint mean score (men with ED; [7]): 3.63 ± 0.04
- IIEF Question 2 erection firmness, endpoint mean score (men with ED; [7]): 3.50 ± 0.04
- IIEF Question 5 maintenance ability, endpoint mean score (men with ED; [7]): 3.35 ± 0.04
- IIEF Question 6 intercourse frequency, endpoint mean score (men with ED; [7]): 3.13 ± 0.03
- IIEF Question 7 intercourse satisfaction, endpoint mean score (men with ED; [7]): 3.38 ± 0.04
- IIEF Question 8 intercourse enjoyment, endpoint mean score (men with ED; [7]): 3.16 ± 0.03
- IIEF Question 13 overall satisfaction, endpoint mean score (men with ED; [7]): 3.36 ± 0.03
- IIEF Question 14 relationship satisfaction, endpoint mean score (men with ED; [7]): 3.68 ± 0.03
- IIEF Question 15 erection confidence, endpoint mean score (men with ED; [7]): 3.10 ± 0.03
- Frequency of ejaculation (Question 9), mean score versus placebo, in words (men with ED; [8]): increased significantly
- Frequency of orgasm (Question 10), mean score versus placebo, in words (men with ED; [8]): increased significantly
- Important aspects of sexual function, in words (men with ED; patients with ED without concomitant SSRI): significantly improved
- IIEF Q9 frequency of ejaculation, mean change from baseline ± SEM (men with ED; [9]): 0.90 ± 0.04
- IIEF Q10 frequency of orgasm, mean change from baseline ± SEM (men with ED; [9]): 0.93 ± 0.04
- IIEF Q9 frequency of ejaculation, mean baseline score ± SEM (men with ED; [10]): 2.74 ± 0.04
- IIEF Q10 frequency of orgasm, mean baseline score ± SEM (men with ED; [10]): 2.65 ± 0.04
